Test: monitoring the stability of the solution (hypothiocyanite concentration in water leaving the reactor)
Assay type: physicochemical
From the text: The hypothiocyanite ions (OSCN^−) are able to react with the sulfhydryl groups of a 5,5′-dithiobis (2-nitrobenzoic acid) molecule which has previously been reduced in the presence of an excess of sodium borohydride.
This reduced molecule absorbs light at a wavelength of 412 nm.
When the hypothiocyanite ions (OSCN^−) oxidize the sulfhydryl groups, the absorbance at 412 nm decreases in proportion to the quantity of ions which are present in the sample, thereby enabling them to be quantified.
The methods described above are used to monitor the change in the concentration of hypothiocyanite ion, i.e. OSCN^−, in solutions leaving the reactor, the results of which are obtained are illustrated in FIGS. 3 and 4, which depict the curve for the changes in the concentration of hypothiocyanite ion, OSCN^−, in the water leaving the reactor over a period of 1 day (FIGS. 4) and 4 days (FIG. 3).

N#CSO [OSCN^−, hypothiocyanite ion]
concentration of OSCN^− (after 10 hours (FIG. 4)): 500000 µM
fall in concentration of OSCN^− (after 20 hours (FIG. 4)): 50%
residual concentration of hypothiocyanite ion, relative to the initial concentration (after 80 hours (FIG. 3)): 16%
concentration of OSCN^− (initial, solution leaving the reactor (FIG. 4)): 600000 µM

From patent publication US7754445B2, “Method for the enzymatic production of a curing agent and its fluid state” (TMI Europe, priority 2001, dated 2010)
